Experimental data taken from US20140350114A1, “COMPOSITIONS COMPRISING CYCLOHEXYLAMINES AND AMINOADAMANTANES” (MERZ PHARMA GmbH & CO. KGaA, priority 2003, published 2014).

Key:
[1] = antimicrobial activity in preserving liquid aqueous formulations (general observation); conditions: at concentrations useful for pharmaceutical formulation purposes
[2] = tested on: Candida albicans, Aspergillus niger, Escherichia coli, Pseudomonas aeruginosa, Staphylococcus aureus; test: Antimicrobial Effectiveness Testing USP <51>, overall conclusion; assay type: cell-based; conditions: all inoculums
Method: The testing was performed in accordance with the USP <51> using the culture conditions for inoculum specified in the test conditions. The Antimicrobial Effectiveness Testing (referred to later in the text as APE or antimicrobial effectiveness) is performed as described in USP 26, The United States Pharmacopeial Convention, Inc. (Rockville, Md., 2002; pp. 2002-2004). The test is conducted in five sterile, capped bacteriological containers into which a sufficient volume of product has been transferred. Test organisms include Candida albicans (ATCC No. 10231), Aspergillus niger (ATCC No. 16404), Escherichia coli (ATCC No. 8739), Pseudomonas aeruginosa (ATCC No. 9027), Staphylococcus aureus (ATCC No. 6538). Each container is inoculated with one of the prepared and standardized inoculum, and mix. […] The number of cfu present in each test preparation is determined by the plate-count procedure, specified in the monograph, for the applicable intervals. Using the calculated concentrations of cfu per mL present at the start of the test, the change in log10 values of the concentration of cfu per mL for each microorganism is calculated at the applicable test intervals, and the changes in terms of log reductions is expressed. Results are evaluated in accordance with the Product Category for Oral Products made with aqueous bases or vehicle.

SMILES	antimicrobial activity [1]	antimicrobial / preservative effectiveness against USP <51> criteria (conclusion) [2]
CN(C)CCOCC(=O)NC12CC3CC(CC(C3)C1)C2 [tromantadine, 1-(dimethylaminoethoxyacetamido) adamantane]	significant antimicrobial activity	–
CC1(C)CC(C)(C)CC(C)(N)C1 [neramexane, 1-amino-1,3,3,5,5-pentamethylcyclohexane]	significant antimicrobial activity	sufficient preservative efficacy
CC12CC3CC(C)(C1)CC(N)(C3)C2 [memantine, 1-amino-3,5-dimethyl adamantane]	significant antimicrobial activity	–
